Laboratory results as given in US20200368234A1, “PHOTORECEPTOR GENE MODULATOR PHOTOREGULIN 3 FOR TREATMENT OF RETINAL DISEASE” (University of Washington, priority 2017, published 2020).
Entries after “also recorded” stand apart in the source; their conditions may differ.

Key:
Rhodopsin = Rhodopsin protein expression (immunofluorescence assay) in dissociated retinal cell cultures; format: cell-based; settings: P5 mouse dissociated retinal cultures, 2 days treatment, vs DMSO and PR1
Text: In order to identify compounds that may target Nr2e3 a cheminformatic strategy was used to screen hit compounds previously identified to interact with recombinant Nr2e3 in transfected CHO-S cells in a luciferase-based assay (PubChem Assay IDs: 602229, 624378, 624394, and 651849). As a secondary screen for initial hits, dissociated primary retinal cell cultures were used and assayed Rhodopsin, because it is a well-defined target of Nr2e3 signaling and is expressed at high levels exclusively in rod photoreceptors. Retina were dissociated from postnatal day 5 (P5) mice and cultured them in media containing the small molecules. After treatment for 2 days, the cells were collected for qPCR analysis and quantified Rhodopsin expression. […] This finding was confirmed with an immunofluorescence assay to examine Rhodopsin protein expression in dissociated retinal cultures from P5 mice.
Retinas were dissected from postnatal day 5 (P5) mice and dissociated by treatment with 0.5% Trypsin diluted in calcium- and magnesium-free HBSS from 10 minutes at 37° C. Trypsin was inactivated by adding an equal volume of FBS and cells were pelleted by centrifugation at 4° C. and resuspended in media (Neurobasal-A containing 1% FBS, 1% N2, 1% B27, 1% Pen/Strep, and 0.5% L-glutamine). For qPCR, cells were plated into 24-well tissue culture plates at a density of 1 retina/well (see qPCR section below). […]

[1] = test system: S Opsin+ cells in the ventral retina; test: S Opsin+ cell count in intact retinal explant cultures; format: cell-based; settings: P11 mouse intact retina explants, 0.3 μM PR3, 3 DIV, vs DMSO
Text: Scale bar represents 50 μm. E. PR3-treated retinas had more S Opsin+ cells per 100 μm×100 μm field in the ventral retina compared to DMSO-treated retinas (n=3, *p<0.05, Student's t-test).
FIG. 1E is a graph quantifying the effects of PR3 on S-opsin expression; treatment conditions were the same as those in FIG. 1D. S-opsin+ cones are predominantly present in the ventral retina of mice.
Mutations in Nr2e3 result in an increased number of S Opsin+ photoreceptors as well as a reduction in rod gene expression. To determine if PR3 treatment also affects cone gene expression, intact retinas were explanted from P11 wild type mice in media containing DMSO or PR3 for 3 days. Intact retinas were used for this experiment to assess changes in dorsal and ventral retina independently. After fixation and whole mount immunostaining, S Opsin+ cells were counted in the ventral retina.
Intact retinas without RPE from P11 C57Bl/6 mice were explanted on 0.4 μm pore tissue culture inserts in media (Neurobasal-A containing 1% FBS, 1% N2, 1% B27, 1% Pen/Strep, and 0.5% L-Glutamine) containing DMSO or 0.3 μM Photoregulin3. Full media changes were performed every other day. […] Cells were counted from single plane confocal images taken at fixed settings.

photoreceptors = test: Electron microscopy of photoreceptor morphology in wild type mice after PR3; format: in vivo; settings: 10 mg/kg i.p. for 3 consecutive days from P11, EM at P14
Method: FIG. 2C compares electron microscope micrographs of retinal sections of wild type mice treated with 10 mg/kg PR3 or DMSO vehicle. Compared to controls, PR3 retinas have arrested inner and outer segment development and less compact heterochromatin in the ONL. Scale bars represent 10 μm (top) and 2 μm (bottom).
Electron microscopy (EM) was used to perform an ultrastructural analysis of photoreceptor morphology after PR3 treatment. Wild type mice were intraperitoneally injected with vehicle or PR3 for 3 consecutive days starting at P11. At P14, 24 h after the third injection, the mice were euthanized and processed their retinas for EM. Photoreceptor outer segments begin to form during the second and third postnatal week; genetic loss-of-function mutations in Nr2e3 lead to an impairment in rod outer segment formation.
Photoregulin3 was identified by searching previous small molecule screens with SciFinder and PubChem for Nr2e3 interacting molecules. It was initially obtained from ChemDiv and then synthesized and purified in large quantities in the lab after initial screening. For in vivo experiments, mice were injected intraperitoneally with PR3 dissolved in DMSO at 10 mg/kg.
Mice were euthanized by CO2, and then perfused with 0.9% saline followed by 4% glutaraldehyde in 0.1 M sodium cacodylate buffer. Eye cups were fixed in 4% glutaraldehyde in 0.1 M sodium cacodylate buffer, washed with 0.1 M sodium cacodylate buffer, and then post-fixed in 2% osmium tetroxide. After fixation, eye cups were washed with water, dehydrated through a graded series of ethanol, incubated in propylene oxide and then epon araidite, polymerized overnight at 60° C., and then sectioned at a thickness of 70 nm. Images were obtained using a JEOL JEM-1230 electron microscope.

Nr2e3-NCOR dimer complex = target: T1, Nr2e3-NCOR dimer complex (Homo sapiens, UniProt Q9Y5X4); settings: PubChem Assay IDs 602229, 624378, 624394, 651849; cited from earlier work
T1 construct: expressed in transfected cells; host or cells: CHO-S cells
T1 sequence (Q9Y5X4 whole entry, one chain of several): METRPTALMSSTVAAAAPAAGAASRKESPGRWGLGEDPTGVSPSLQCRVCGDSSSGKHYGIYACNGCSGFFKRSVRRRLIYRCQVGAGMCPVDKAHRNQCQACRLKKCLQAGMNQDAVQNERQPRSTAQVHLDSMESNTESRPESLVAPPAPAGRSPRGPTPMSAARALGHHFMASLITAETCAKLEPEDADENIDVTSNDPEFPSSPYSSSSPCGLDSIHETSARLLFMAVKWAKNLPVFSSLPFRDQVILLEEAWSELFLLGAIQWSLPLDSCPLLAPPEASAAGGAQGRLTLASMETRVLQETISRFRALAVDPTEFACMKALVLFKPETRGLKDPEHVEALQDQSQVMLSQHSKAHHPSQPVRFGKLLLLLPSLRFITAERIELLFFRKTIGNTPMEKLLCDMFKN

Compound: COc1cc2nc(CN3CC=C(c4ccccc4)CC3)nc(O)c2cc1OC [PR3]
- Rhodopsin protein expression (Rhodopsin): reduced expression of Rhodopsin compared to DMSO vehicle and PR1
- S Opsin+ cells per 100 μm×100 μm field in the ventral retina [1]: significantly more S Opsin+ cells per 100 μm×100 μm field in the ventral retina compared to DMSO-treated retinas; also recorded: increase in the number S Opsin+ cells in the ventral retina
- heterochromatin of rod nuclei (EM) (photoreceptors): smaller patches of densely packed heterochromatin compared to DMSO retinas
- photoreceptor apoptosis / cell death in ONL nuclei (EM) (photoreceptors): not due to an increase in cell death
- photoreceptor outer segment development (EM) (photoreceptors): prevented outer segment development
- modulation of Nr2e3 in luciferase-based assay (Nr2e3-NCOR dimer complex): identified as a chemical modulator of Nr2e3
